Test results taken from patent publication US20260069606A1, “Oxidative Stress and Diabetes Treatment with Cobinamide” (The Regents of the University of California, priority 2022, published 2026).
Several values for one entry are separate records, joined by “and”; a condition that tells them apart may be missing. Equal values may be shown once. Read-outs that look alike come from different tables or passages of the source.

Tests used:
[1] = Reaction with peroxynitrite, stopped-flow; assay type: biochemical
Method: (§1) FIGS. 2A-2F. Cobinamide Functions as a Catalase Mimetic and Reacts with Peroxynitrite. […]. Hydrogen peroxide (final concentration 50 μM) was added to solutions containing increasing concentrations of Chi(III) (FIG. 2A) or Chi(II) (FIG. 2C), and the H2O2 concentration was measured over time using a H2O2-specific electrode. The log of the velocity in the presence of Chi(III) (FIG. 2B) or Chi(II) (v) (FIG. 2D) over the velocity in their absence (Vo) is plotted against the log of their concentrations at 20 min over their concentrations at zero time. These plots yield a reaction order with respect to Chi(III) and Cbi(II) of 0.7. The experiments were repeated three times with similar results. Dotted lines show 95% confidence intervals. FIG. 2E. […] The Chi(III) spectra are slightly different from those shown in FIG. 1G because at pH 11, dihydroxo-cobinamide is generated, whereas at pH 7.1, aquohydroxo-cobinamide is the predominant species. The spectra of aquohydroxo- and dihydroxo-cobinamide are known to be different^65. FIG. 2F. Varying concentrations of Chi(II) from 1 to 10 μM were mixed with 10 μM peroxynitrite in a stopped-flow instrument, and absorption at 315 nm was monitored for 0.5 sec. The results for 5 μM Cbi(II) are shown; red circles are the observed data, and the black line is a two-phase non-linear regression curve generated by Prism 7.04 software. […] The experiment was repeated three times with similar results. Dotted lines show 95% confidence intervals.
Table I. Reaction Rates of Cobinamide (Cbi), Cobalamin, Imisopasem, and MnTBAP with Reactive Oxygen and Nitrogen Species. Reactions of the indicated compounds with O2·^−, ONOO^−, and ·NO are all second order reactions with rate constants in units of M^−1 s^−1. The reactions of Cbi(III) and Cbi(II) with H2O2 are third order with rate constant units of M^−2 s^−1. […] For the new data presented in this study, rate constants were measured for O2·^− using a hypoxanthine-xanthine oxidase-cytochrome c system, for H2O2 using a H2O2-specific sensor (World Precision Instruments), and for ONOO^− using a stopped-flow instrument. […]

[2] = Reaction with superoxide, hypoxanthine-xanthine oxidase-cytochrome c reduction system; assay type: biochemical; settings: for Apparent rate constant, reaction with superoxide (O2·^−): second order, hypoxanthine-xanthine oxidase-cytochrome c system, new data of this study
Method: FIGS. 1A-1G. Cobinamide Functions as a Superoxide Dismutase Mimetic. FIGS. 1A-1B. Chemical structures of aquohydroxo-cobinamide (FIG. 1A) and hydroxo-cobalamin (FIG. 1B). FIGS. 1C, 1E. Increasing concentrations of Chi(III) (FIG. 1C) or Chi(II) (FIG. 1E) were incubated in a hypoxanthine-xanthine oxidase-cytochrome c-catalase system for measuring O2·^−, with the change in absorbance at 550 nm (ΔAbs) plotted versus time. A no substrate (no hypoxanthine) control was included. FIGS. 1D, 1F. The calculated rate of change of absorbance at 550 nm in the absence of Chi(III) or Chi(II) (Vo) divided by the calculated rate in their presence (v) is plotted against the Chi(III) (FIG. 1D) or Chi(II) (FIG. 1F) concentration, respectively. The slope of the fitted line was used to calculate the apparent rate constant according to the following equation: kCbi=slope×kcytochrome c×[cytochrome c], where kcytochrome c=1.4×10^6 M^−1 s^−1 and [cytochrome c]=70 μM^70. The data shown are the mean of duplicate samples from one experiment, with similar results found in two additional experiments. Dotted lines show 95% confidence intervals. FIG. 1G. A 20 μM solution of Chi(III) in DMSO was scanned from 280 to 600 nm yielding the spectrum shown as a black line. An equimolar amount of […] (KO2) dissolved in dimethyl sulfoxide (DMSO) was added and the solution was scanned immediately, yielding the grey line. […] The experiment was conducted three times with identical results.
(§2) Table I. Reaction Rates of Cobinamide (Cbi), Cobalamin, Imisopasem, and MnTBAP with Reactive Oxygen and Nitrogen Species. Reactions of the indicated compounds with O2·^−, ONOO^−, and ·NO are all second order reactions with rate constants in units of M^−1 s^−1. The reactions of Cbi(III) and Cbi(II) with H2O2 are third order with rate constant units of M^−2 s^−1. Chi(II) and cobalamin(II) bind nitric oxide, so a Ka is shown in units of M^−1. For the new data presented in this study, rate constants were measured for O2·^− using a hypoxanthine-xanthine oxidase-cytochrome c system, for H2O2 using a H2O2-specific sensor (World Precision Instruments), and for ONOO^− using a stopped-flow instrument. Published rate constants for Cu/Zn and Mn superoxide dismutases (SOD) and catalase are shown for reference.^a,b Letters and numbers in parenthesis refer to footnotes and references, respectively.
The reaction of cobinamide with O2·^− was studied in two different systems, generating O2·^− using a hypoxanthine-xanthine oxidase system.
The first system contained 100 μM hypoxanthine and 0.1 unit xanthine oxidase in 20 mM sodium phosphate buffer, pH 7.1. The amount of O2·^− was measured by following reduction of ferric-cytochrome c (70 μM) at 550 nm as described previously^65. Catalase was included (32 units per sample), because xanthine oxidase generates both O2·^− and H2O2, and the latter can re-oxidize the ferro-cytochrome c product^34,66. The reaction was followed for 10 min. A no substrate blank lacking hypoxanthine was included.
In both systems, the experiments were conducted in the absence and presence of the indicated concentrations of Cbi(III) or Chi(II) 65.
Catalase was included in the reaction mixture, because the hypoxanthine-xanthine oxidase system also generates H2O2 and the latter can oxidize the ferro-cytochrome c product back to ferric-cytochrome c, thereby interfering with the kinetic measurement^34.

[3] = even on exposure to air
Method: H9c2 cells were incubated for 30 min with vehicle, 2.5 μM cobinamide, or 5 μM rotenone, the latter in the absence or presence of 2.5 μM cobinamide, imisopasem, MnTBAP, or cobalamin; 5 μM MitoSOX was added during the last 10 min. The cells were incubated with 1 mg/ml DAPI for 3 min to counterstain nuclei, and then visualized under a fluorescence microscope. […] Equal-sized representative areas for each condition are shown for MitoSOX staining (red fluorescence) and the same area showing merged MitoSOX and DAPI staining. […] The amount of red fluorescence was quantified by Image J analysis. Data are the mean±SD of three independent experiments; in each experiment two separate equal-sized areas were analyzed containing ˜75 cells per area. […] H9c2 cells were incubated for 10 min with 10 μM JC-1, washed once with PBS, and then incubated for 30 min with vehicle, 2.5 μM cobinamide, or 5 μM rotenone in the absence or presence of 2.5 μM of the indicated drugs as described in Panels A, B. FIG. 3C. Cells were visualized under a fluorescence microscope and equal-sized representative areas of each condition are shown, with red and green fluorescence shown for the same area. […] The amount of red and green fluorescence was quantified by Image J analysis and the red to green ratio was calculated. The slides were analyzed by an operator who was blinded to the specific conditions. Data are the mean±SD of three independent experiments; in each experiment two separate equal-sized areas were analyzed containing ˜75 cells per area. […] Blots from four independent experiments were analyzed by densitometric scanning (Li-Cor Odyssey software) in a range where band intensity was linear. The ratio of the pJNK band to GAPDH was calculated, and the results normalized to control untreated cells. […] The UV-visible spectrum of Chi(III) in 50 mM potassium phosphate buffer, pH 7.4 was recorded before (black line) and immediately after adding a three-fold molar excess of ascorbate (blue line), cysteine (teal line), or reduced glutathione (GSH, pink line). […]

[4] = system: Jun N-terminal kinase (JNK) phosphorylation in H9c2 cells; assay: H2O2-induced JNK phosphorylation, immunoblotting; assay type: cell-based, rat; settings: for JNK phosphorylation in H2O2-treated cells: H9c2, 100 μM H2O2 30 min, drugs at 100 μM
From the text: (§3) FIGS. 3A-3H. […] FIGS. 3A-3B. […] FIG. 3A. […] FIG. 3B. […] FIGS. 3C-3D. […] FIG. 3D. […] FIGS. 3E-3F. […] FIG. 3E. Representative blots are shown. […] FIG. 3F. […] FIG. 3G. […] FIG. 3H.

[5] = Reaction with hydrogen peroxide, H2O2-specific electrode; assay type: biochemical
Method: as §1, §2
Both Cbi(III) and Chi(II) react with H2O2, and the reaction was essentially first order with respect to Cbi(III) and Cbi(II) (FIG. 2A-D), and second order with respect to H2O2 for both cobinamide species. […]

[6] = literature values, cited from earlier work; for Rate constant, reaction with nitric oxide (·NO), published: second order
[7] = second order; literature values; cited from earlier work
[8] = system: H9c2 rat embryonal cardiomyocytes; assay: Mitochondrial superoxide content, MitoSOX Red fluorescence; assay type: cell-based; settings: H9c2, 5 μM rotenone 30 min, drugs at 2.5 μM
Method: as §3
H9c2 cells were plated on glass cover slips in 24 well dishes, and 16 h later the medium was changed to phenol red-free DMEM supplemented with 20 mM Hepes, 0.1% fetal bovine serum, and 0.5% bovine serum albumin. […] MitoSOX Red is a dihydroethidium derivative containing triphenyl-phosphonium, which localizes it to respiring mitochondria. Its reaction with O2·^− yields 2-hydroxy-mitoethidium (2-OH-Mito-E″), whereas its reaction with other oxidative species yields mitoethidium (Mito-E^+)^67. These two oxidative derivatives have overlapping fluorescence spectra, but they can be distinguished by high performance liquid chromatography (HPLC)^68. Rotenone increased 2-OH-Mito-E^+ about two-fold, without increasing Mito-E^+. Thus, any increased fluorescence observed on treating cells with rotenone could be ascribed to an increase in 2-OH-Mito-E^+, and decreased fluorescence by an anti-oxidant in rotenone-treated cells was likely from a decrease in 2-OH-Mito-E^+.
(§4) The cells were then washed once with PBS, placed back in the DMEM experimental medium, and incubated with the indicated drugs for 30 min. At the end of the incubation period, nuclei of both the MitoSOX Red- and JC-1-treated cells were stained with […] 4′,6-diamidino-2-phenyl-indole (DAPI) for 3 min, washed once with PBS, and returned to the DMEM experimental medium. The cover slips were removed from the wells, mounted in the DMEM experimental medium, and red (MitoSOX Red and JC-1 aggregates), green (JC-1 monomers), and blue (DAPI) fluorescence intensity was assessed using a Keyence BZ-X700 fluorescence microscope at the following paired excitation/emission wavelengths, respectively: 560/630, 490/525, and 360/460 nm.
To assess if cobinamide reduces oxidative stress in cells and to compare its […] efficacy to that of cobalamin, imisopasem, and MnTBAP, several sets of experiments were performed. First, whether cobinamide reduces mitochondrial-generated O2·^− was evaluated using the fluorescent probe MitoSOX Red. H9c2 rat embryonal cardiomyocytes were treated with rotenone, an inhibitor of complex I, to increase mitochondrial O2·^−. […] Monitoring the UV-visible spectrum of cobinamide is a sensitive means to assess ligand binding^38.

[9] = literature values; not strictly comparable with third-order constants; cited from earlier work
[10] = second order; literature values; cited from earlier work; remark: listed apart in the source
[11] = system: D. melanogaster; assay: Survival of fruit flies during paraquat poisoning; assay type: in vivo
Method: The number of live flies was counted each day for 7 d. The experiment was repeated seven times, for a total of 70 flies per condition. The percent surviving flies was calculated; error bars represent standard deviations and are shown in one direction only for sake of clarity. […] Chi, cobinamide in Panel A and histidyl-cobinamide in Panels B-K; Imp, imisopasem; MnTP, MnTBAP; CbL, cobalamin; DNPH, 2,4-dinitrophenylhydrazine; ND, non-diabetic; D, diabetic; Veh, vehicle.
To test cobinamide in a whole animal, D. melanogaster was selected for initial studies, and oxidative stressed was increased in the files by administering paraquat in their food. Cobinamide was again compared to imisopasem, MnTBAP, and hydroxocobalamin, all administered in food.

[12] = system: COS-7 cells
Method: as §3
Finally, whether cobinamide could alleviate the effects of oxidative stress induced by yet another mechanism in a different cell type was tested using paraquat-treated COS-7 cells. Paraquat generates O2·^− through a redox cycling mechanism and increases both intracellular O2·^− and H2O2^42.

[13] = system: H9c2 cells; assay: Mitochondrial membrane potential, JC-1 red to green fluorescence; assay type: cell-based, rat; settings: H9c2, 5 μM rotenone 30 min, drugs at 2.5 μM
Method: as §3, §4
Increased mitochondrial O2·^− by rotenone would be expected to reduce the mitochondrial membrane potential (ΔΨm), due in part to activation of uncoupling proteins^39. […] Rotenone caused an almost complete loss of red fluorescence and a striking increase in green fluorescence in the cells, indicating a marked decrease in ΔΨm (FIGS. 3C-3D).

Q: Which “Fold higher ONOO^− rate constant than MnTBAP” value ([1]; compared with published MnTBAP value) does the source give for C/C1=C2/[N-][C@H]([C@H](CC(N)=O)[C@@]2(C)CCC(=O)NC[C@@H](C)O)[C@]2(C)N=C(/C(C)=C3N=C(/C=C4N=C1[C@@H](CCC(N)=O)C\4(C)C)[C@@H](CCC(N)=O)[C@]\3(C)CC(N)=O)[C@@H](CCC(N)=O)[C@]2(C)CC(N)=O.[Co] [Cbi(II)] here?
A: > 50 fold

Q: What about the “Fold higher ONOO^− rate constant than cobalamin(II)” value ([1]; compared with published cobalamin(II) value) of the same compound?
A: more than 10 fold

Q: And the “Apparent rate constant, reaction with peroxynitrite (ONOO^−)” value ([1]; second order, stopped-flow, 10 μM peroxynitrite, new data of this study)?
A: 6.34×10^6 M^−1 s^−1 and 6.3 × 10^6 (^c) ^ M^−1 s^−1

Q: And the “Apparent rate constants, reaction with O2·^−” value ([2]; hypoxanthine-xanthine oxidase-cytochrome c reduction system, catalase included, exponent shared in the sentence)?
A: 1.92e+08 M⁻¹ s⁻¹

Q: What about the “Apparent rate constant, reaction with superoxide (O2·^−)” value [2] of the same compound?
A: 1.9e+08 M⁻¹ s⁻¹

Q: What about the “Persistence of the reduced state” value [3] of the same compound?
A: remains in the reduced state for several hours

Q: What about the “JNK phosphorylation in H2O2-treated cells” value [4] of the same compound?
A: reduced JNK phosphorylation to a level that was indistinguishable from vehicle-treated cells

Q: And the “JNK phosphorylation or total cellular JNK in the absence of H2O2” value ([4]; H9c2, drug alone)?
A: neither Cbi(III), Cbi(II) nor the other three drugs affected JNK phosphorylation

Q: What about the “Reaction order with respect to the cobinamide species in the reaction with H2O2” value ([5]; 50 μM H2O2) of the same compound?
A: 0.7

Q: And the “Apparent rate constant, reaction with hydrogen peroxide (H2O2)” value ([5]; third order, H2O2-specific sensor, new data of this study)?
A: 3.7 × 10^4 M^−2 s^−1

Q: What about the “Ka, binding of nitric oxide (·NO), published” value [6] of the same compound?
A: Ka: 1.3 × 10^10 (51) M^−1

Q: Which results are given for [Cl-].[Cl-].[Mn+2].c1cc2nc(c1)CN[C@@H]1CCCC[C@H]1NCCN[C@@H]1CCCC[C@H]1NC2 [Imisopasem, imisopasem manganese]?
A: Rate constant, reaction with superoxide (O2·^−), published [7]: 1.6e+07 M⁻¹ s⁻¹; MitoSOX red fluorescence in rotenone-treated cells [8]: reduced the fluorescent signal substantially; Rate constant, reaction with hydrogen peroxide (H2O2), published [9]: 8.2; Rate constant, reaction with peroxynitrite (ONOO^−), published [10]: No activity (26); JNK phosphorylation in H2O2-treated cells [4]: small non-significant effects; Effect on mortality of paraquat-exposed flies ([11]; 20 mM paraquat with 0.8 mM drug in food, over 7 d): no significant effect; Effect on cell growth of paraquat-treated cells ([12]; COS-7, 1 mM paraquat 3 h, 100 μM drug, counted 48 h later): neither imisopasem nor MnTBAP had an effect; Rate constant, reaction with nitric oxide (·NO), published [6]: No activity (26); JC-1 red to green fluorescence ratio (ΔΨm) in rotenone-treated cells [13]: modest degrees of recovery

Q: What does the source list for hydroxo-cobalamin?
A: MitoSOX red fluorescence in rotenone-treated cells [8]: reduced the fluorescent signal substantially; Rate constant, reaction with hydrogen peroxide (H2O2), published [9]: 4.5 × 10^6; Apparent rate constant, reaction with superoxide (O2·^−) [2]: 9.4e+06 M⁻¹ s⁻¹; JNK phosphorylation in H2O2-treated cells [4]: no effect; Effect on mortality of paraquat-exposed flies ([11]; in vivo): no significant effect; Effect on cell growth of paraquat-treated cells [12]: improved cell growth; Rate constant, reaction with nitric oxide (·NO), published [6]: No activity (51, 71); JC-1 red to green fluorescence ratio (ΔΨm) in rotenone-treated cells [13]: modest degrees of recovery
